In the NIST ThermoML archive (doi:10.1007/s10765-011-1149-x):

How the values were obtained:
[1] = 101 kPa, Liquid, Vibrating tube method
[2] = xn = mol fraction of the nth substance listed; conditions: 101 kPa, Liquid, Vibrating tube method, x2 = 0

Cc1cc(C)nc(C)c1 [2,4,6-trimethylpyridine]
[1]
Conditions	mass density [kg/m3]
276.15 K	928.45
277.15 K	927.61
283.15 K	922.54
288.15 K	918.32
293.14 K	914.08
298.15 K	909.84
303.15 K	905.58
308.15 K	901.31
313.15 K	897.03

OCCO [1,2-ethanediol] + Cc1cc(C)nc(C)c1
[2]
Conditions	mass density [kg/m3]
276.15 K	1125.17
277.15 K	1124.48
283.15 K	1120.32
293.15 K	1113.37
303.15 K	1106.36
313.15 K	1099.3

CO [methanol] + Cc1cc(C)nc(C)c1
[2]
Conditions	mass density [kg/m3]
276.15 K	807.18
277.15 K	806.25
283.15 K	800.64
288.15 K	795.96
293.15 K	791.26
298.15 K	786.55
303.15 K	781.83
308.15 K	777.08
313.14 K	772.31

OCCO [1,2-ethanediol]
[1]
Conditions	mass density [kg/m3]
276.15 K	1125.17
277.15 K	1124.48
283.15 K	1120.32
293.15 K	1113.37
303.15 K	1106.36
313.15 K	1099.3

CO [methanol]
[1]
Conditions	mass density [kg/m3]
276.15 K	807.18
277.15 K	806.25
283.15 K	800.64
288.15 K	795.96
293.15 K	791.26
298.15 K	786.55
303.15 K	781.83
308.15 K	777.08
313.14 K	772.31
